For the data set, the target named is hERG (KCNH2) (Homo sapiens, UniProt Q12809). The experiment in a line: hERG inhibition assays: For hERG inhibition assays, the cells used were HEK293 cells stably transfected with hERG (cell line obtained from Cytocentrics Inc. 3463 Magic Drive San Antonio, Tex. 78229). Composition of External Solution: NaCl, 137 mM; KCl, 4 mM; MgCl2, 1.0 mM; CaCl2, 1.8 mM; HEPES 10 mM; Dextrose 11 mM; Adjusted to a pH of 7.4 with NaOH. Composition of Internal Solution: KCl, 130.0 mM. Conditions: pH 7.4. In general terms: Block of hERG is tested as a sign of cardiac risk.
Chain of hERG (KCNH2) (Q12809 whole entry): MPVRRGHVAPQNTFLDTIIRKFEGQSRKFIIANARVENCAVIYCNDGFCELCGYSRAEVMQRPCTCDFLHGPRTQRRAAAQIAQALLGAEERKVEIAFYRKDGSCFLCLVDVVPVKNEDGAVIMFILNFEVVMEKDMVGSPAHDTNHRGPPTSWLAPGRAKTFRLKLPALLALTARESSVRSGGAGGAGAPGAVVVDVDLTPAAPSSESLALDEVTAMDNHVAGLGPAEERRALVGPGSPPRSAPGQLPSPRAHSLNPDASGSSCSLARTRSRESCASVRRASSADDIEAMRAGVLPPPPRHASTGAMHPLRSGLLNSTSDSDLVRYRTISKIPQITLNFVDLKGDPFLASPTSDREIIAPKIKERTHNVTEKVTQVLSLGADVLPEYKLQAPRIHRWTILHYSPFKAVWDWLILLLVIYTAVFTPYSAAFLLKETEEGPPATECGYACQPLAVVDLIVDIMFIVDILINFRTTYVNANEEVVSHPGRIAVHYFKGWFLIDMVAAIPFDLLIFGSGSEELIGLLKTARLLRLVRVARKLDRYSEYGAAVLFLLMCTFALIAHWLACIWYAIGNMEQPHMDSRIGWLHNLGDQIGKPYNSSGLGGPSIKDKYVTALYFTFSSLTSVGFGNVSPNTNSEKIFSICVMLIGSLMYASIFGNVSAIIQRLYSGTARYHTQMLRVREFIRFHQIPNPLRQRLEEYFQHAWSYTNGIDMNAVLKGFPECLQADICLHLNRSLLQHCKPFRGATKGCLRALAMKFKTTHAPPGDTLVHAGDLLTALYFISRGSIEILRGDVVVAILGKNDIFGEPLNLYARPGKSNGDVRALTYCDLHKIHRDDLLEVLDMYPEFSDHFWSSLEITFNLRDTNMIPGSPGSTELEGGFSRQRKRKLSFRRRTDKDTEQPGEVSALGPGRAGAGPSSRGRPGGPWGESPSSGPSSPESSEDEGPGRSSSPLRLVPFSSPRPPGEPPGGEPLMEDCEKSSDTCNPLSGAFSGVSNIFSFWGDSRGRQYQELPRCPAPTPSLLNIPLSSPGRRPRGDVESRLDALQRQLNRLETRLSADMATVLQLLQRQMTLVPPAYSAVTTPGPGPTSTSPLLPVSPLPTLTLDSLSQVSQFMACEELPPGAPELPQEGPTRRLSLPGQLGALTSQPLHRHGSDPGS

The term IC50 denotes the concentration that gives 50% inhibition. High values mean lower potency, low ones higher potency. `Nc1ccc(-c2cccs2)cc1NC(=O)c1ncc(N2CCNCC2)s1` had a half-inhibitory concentration (IC50) of 3.6 µM.

Source of the values: ChEMBL document CHEMBL5727940, “Substituted piperazines as selective HDAC1,2 inhibitors” (2020).
